# Measured values: EP1996603B1, “LIPID A ANTAGONISTS WITH ANTI-SEPTIC SHOCK, ANTI-INFLAMMATORY, ANTI-ISCHEMIA AND ANALGESIC ACTIVITY” (Università Degli Studi Di Milano - Bicocca, priority 2006, dated 2007)
# Entries after “also recorded” stand apart in the source; their conditions may differ.
# System: BMΦ, BMDC and D1 cells
# Assay: Lipid A-induced TNFα production in macrophages and dendritic cells (ELISA)
# Type: cell-based, Mouse
# Description: BMΦ and DC were derived from bone marrow cells and divided in two separate cultures. For DC preparation bone marrow cells were cultured in complete IMDM supplemented with 10% supernatant of GM-CSF-transduced B16 tumor cells [R. Soiffer, T. Lynch, M. Mihm, K. Jung, C. Rhuda, J. C. Schmollinger, F. S. Hodi, L. Liebster, P. Lam, S. Mentzer, S. Singer, K. K. Tanabe, A. B. Cosimi, R. Duda, A. Sober, A. Bhan, J. Daley, D. Neuberg, G. Parry, J. Rokovich, L. Richards, J. Drayer, A. Berns, S. Clift, L. K. Cohen, R. C. Mulligan, G. Dranoff, Proc. Natl. Acad. Sci. U S A. 1998, 95(22), 13141-13146]. Fresh medium was added every 2 d. After 7-10 d of culture, cells were analyzed for CD11c expression and used in assays when 90% were CD11c positive. For BMΦ preparation bone marrow cells were cultured in complete IMDM supplemented with 10% supernatant of M-CSF-transduced NIH3T3 cells. Also in this case, fresh medium was added every 2 d. After 7-10 d of culture, cells were analyzed for Mac1 expression and used in assays when at least 90% were Mac1 positive. D1 cells were cultured in complete IMDM supplemented with 10% supernatant of GM-CSF-transduced B16 tumor cells.
# D1 cells, BMDC and MΦ were plated in 48 well plates at a concentration of 200000 cells/well in 200µL of medium. One or two hours after plating they were treated with different amounts of compounds Ic and Id for 30 min and then stimulated with Lipid A from Escherichia coli (F583, Rd mutant Sigma, 0.5µM) for 18 h.
# Given the pivotal role of early-activated DC and MΦ in directing inflammatory reactions, compounds Ia, Ic and Id were tested for their ability to antagonize the stimulatory activity of lipid A on bone marrow derived macrophages (BMΦ) and DC (BMDC) by interfering with their capacity to induce TNFα production. As source of DC, D1 cells, a long term growth factor (GM-CSF)-dependent DC line [C. Winzler et al. J. Exp. Med. 1997, 185, 317-327] were also used. BMΦ, BMDC and D1 cells were stimulated with lipid A (0.5 µM) after a pre-exposure to compounds Ia, Ic and Id and the amount of TNFα released in the supernatant was measured by ELISA.
compound,measurement,setting,value
"CCCCCCCCCCCCCCO[C@H]1[C@@H](OC)O[C@H](C[N+](C)(C)C2CCCC2)[C@@H](O)[C@@H]1OCCCCCCCCCCCCCC [Compound Id, methyl 6-deoxy-6-N,N',N""-dimethylcyclopentylammonium-2,3-di-O-tetradecyl-α-D-glucopyranoside]",direct inflammatory function (stimulating cytokines production),"cells treated with compound alone, without lipid A",did not show any direct inflammatory function
same,relative potency as inhibitor of lipid A,"comparison between compounds Ia, Ic and Id",more potent than Ic
same,TNFα production,"stimulation with lipid A (0.5 µM) after pre-exposure to compound, TNFα released in the supernatant measured by ELISA, BMΦ, BMDC and D1 cells",interfered with lipid A's action in a dose-dependent manner; also recorded: lower activity; also recorded: inhibited
